Results published in ChEMBL document CHEMBL5441445, “ASAP - In vitro CYP inhibition pooled” (2024).

What was measured:
Format in all cases: ADME
Cytochrome P450 1A2 = molecular target: T1, Cytochrome P450 1A2 (Homo sapiens, UniProt P05177); assay: (§1) The compounds are incubated at 0, 0.15, 0.5, 1.5, 5, 15 and 50 uM concentration at 37 C, CYP1A2 is pooled in a ratio such that biotransformation of each probe substrate is specific for the CYP450. Substrates (at their Km) are also pooled within the same solution to create an enzyme-substrate stock and test compound is added. The final solvent concentration is 1% DMSO. After equilibration to 37 C, addition of NADPH initiates substrate biotransformation. The incubation is stopped at 10 min by methanol containing internal standard. The quenched samples are centrifuged to precipitate the protein and the supernatants are analyzed by LC-MS/MS to measure metabolite formation. IC50 of test compounds against CYP1A2 is calculated. The assay has been performed by Concept Life Sciences Ltd.
T1 sequence (P05177 whole entry): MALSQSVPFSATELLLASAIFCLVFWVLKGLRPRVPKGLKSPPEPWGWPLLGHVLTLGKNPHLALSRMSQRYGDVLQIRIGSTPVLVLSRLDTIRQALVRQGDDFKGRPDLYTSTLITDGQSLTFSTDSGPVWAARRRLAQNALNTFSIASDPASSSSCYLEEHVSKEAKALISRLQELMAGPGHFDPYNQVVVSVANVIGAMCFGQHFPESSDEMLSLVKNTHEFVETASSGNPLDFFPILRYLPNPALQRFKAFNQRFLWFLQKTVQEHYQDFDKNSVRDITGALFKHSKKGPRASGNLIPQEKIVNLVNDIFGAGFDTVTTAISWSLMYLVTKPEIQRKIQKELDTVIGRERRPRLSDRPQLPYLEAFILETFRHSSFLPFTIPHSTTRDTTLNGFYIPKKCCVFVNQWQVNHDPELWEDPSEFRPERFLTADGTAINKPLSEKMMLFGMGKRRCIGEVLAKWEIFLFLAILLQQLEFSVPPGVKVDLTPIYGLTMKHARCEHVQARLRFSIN

Cytochrome P450 2C19 = Cytochrome P450 2C19 (Homo sapiens, UniProt P33261); assay: as §1, with “CYP2C19” for “CYP1A2”
Cytochrome P450 2C9 = Cytochrome P450 2C9 (Homo sapiens, UniProt P11712); assay: as §1, with “CYP2C9” for “CYP1A2”
Cytochrome P450 2D6 = Cytochrome P450 2D6 (Homo sapiens, UniProt P10635); assay: as §1, with “CYP2D6” for “CYP1A2”
Cytochrome P450 3A4 = Cytochrome P450 3A4 (Homo sapiens, UniProt P08684); assay: as §1, with “CYP3A4” for “CYP1A2”
Cytochrome P450 3A4, sequence (P08684 whole entry): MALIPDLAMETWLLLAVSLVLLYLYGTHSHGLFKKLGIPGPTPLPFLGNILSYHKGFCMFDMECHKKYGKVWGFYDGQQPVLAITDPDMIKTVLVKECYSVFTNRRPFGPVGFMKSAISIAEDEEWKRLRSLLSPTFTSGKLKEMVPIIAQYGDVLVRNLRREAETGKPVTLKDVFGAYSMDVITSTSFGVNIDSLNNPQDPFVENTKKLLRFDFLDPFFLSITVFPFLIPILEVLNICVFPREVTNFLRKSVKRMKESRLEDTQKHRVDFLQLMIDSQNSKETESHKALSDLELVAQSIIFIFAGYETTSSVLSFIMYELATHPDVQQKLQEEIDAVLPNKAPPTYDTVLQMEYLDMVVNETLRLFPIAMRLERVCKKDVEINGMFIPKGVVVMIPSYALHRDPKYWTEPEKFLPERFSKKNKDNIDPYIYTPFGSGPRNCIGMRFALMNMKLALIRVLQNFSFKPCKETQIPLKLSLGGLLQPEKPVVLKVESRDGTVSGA

Cytochrome P450 2C19, sequence (P33261 whole entry): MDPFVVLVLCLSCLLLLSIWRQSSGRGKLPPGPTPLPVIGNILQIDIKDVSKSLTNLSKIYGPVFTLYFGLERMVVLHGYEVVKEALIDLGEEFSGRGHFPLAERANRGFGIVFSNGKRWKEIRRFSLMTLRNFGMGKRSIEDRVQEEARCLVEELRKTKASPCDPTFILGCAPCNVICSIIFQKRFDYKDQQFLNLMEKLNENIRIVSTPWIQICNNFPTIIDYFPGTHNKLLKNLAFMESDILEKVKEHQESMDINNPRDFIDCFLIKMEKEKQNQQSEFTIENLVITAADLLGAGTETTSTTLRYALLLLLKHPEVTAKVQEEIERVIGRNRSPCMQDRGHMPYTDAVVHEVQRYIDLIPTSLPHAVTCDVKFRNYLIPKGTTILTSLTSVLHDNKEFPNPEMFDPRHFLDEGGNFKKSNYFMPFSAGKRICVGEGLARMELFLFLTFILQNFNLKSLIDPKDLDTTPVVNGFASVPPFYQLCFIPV
Cytochrome P450 2D6, sequence (P10635 whole entry): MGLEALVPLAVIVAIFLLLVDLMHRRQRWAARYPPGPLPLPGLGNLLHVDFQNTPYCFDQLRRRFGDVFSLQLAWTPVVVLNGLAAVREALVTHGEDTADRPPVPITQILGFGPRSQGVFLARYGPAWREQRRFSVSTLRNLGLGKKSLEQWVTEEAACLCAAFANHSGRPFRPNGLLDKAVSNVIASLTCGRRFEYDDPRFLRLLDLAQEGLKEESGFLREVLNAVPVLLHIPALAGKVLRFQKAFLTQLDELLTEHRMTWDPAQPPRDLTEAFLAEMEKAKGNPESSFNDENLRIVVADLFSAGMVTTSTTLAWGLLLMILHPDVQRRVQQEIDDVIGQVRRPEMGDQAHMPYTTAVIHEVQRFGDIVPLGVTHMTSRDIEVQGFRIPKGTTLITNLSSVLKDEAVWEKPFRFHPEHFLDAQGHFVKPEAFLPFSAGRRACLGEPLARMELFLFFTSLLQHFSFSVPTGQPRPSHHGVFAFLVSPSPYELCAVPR
Cytochrome P450 2C9, sequence (P11712 whole entry): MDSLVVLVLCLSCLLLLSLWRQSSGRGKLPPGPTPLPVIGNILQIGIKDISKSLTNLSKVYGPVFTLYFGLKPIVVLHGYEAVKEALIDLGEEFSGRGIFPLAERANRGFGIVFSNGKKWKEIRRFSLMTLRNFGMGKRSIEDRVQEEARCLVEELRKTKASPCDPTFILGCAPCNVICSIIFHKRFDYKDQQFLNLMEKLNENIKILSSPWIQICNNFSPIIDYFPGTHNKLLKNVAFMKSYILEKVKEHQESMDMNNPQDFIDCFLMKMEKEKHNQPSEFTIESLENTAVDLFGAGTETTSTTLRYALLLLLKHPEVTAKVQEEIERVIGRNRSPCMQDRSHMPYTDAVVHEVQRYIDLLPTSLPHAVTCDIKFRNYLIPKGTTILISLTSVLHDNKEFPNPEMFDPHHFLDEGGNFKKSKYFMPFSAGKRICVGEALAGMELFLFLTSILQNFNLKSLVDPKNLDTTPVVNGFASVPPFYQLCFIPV

Structure (SMILES) | IC50 (Cytochrome P450 1A2) [µM] | IC50 (Cytochrome P450 2C19) [µM] | IC50 (Cytochrome P450 2C9) [µM] | IC50 (Cytochrome P450 2D6) [µM] | IC50 (Cytochrome P450 3A4) [µM]
CC(C)[C@H](Nc1ncnc2[nH]ccc12)c1ccc2c(c1)S(=O)(=O)CCC2 | > 50 | 15 | 18.2 | > 50 | 3.2
CC(C)[C@@H](Nc1ncnc2[nH]c(C(=O)N[C@@H]3CCN(C)C3)cc12)c1ccc2c(c1)S(=O)(=O)CCC2 | > 50 | > 50 | > 50 | > 50 | > 50
Cn1ncc(-c2cc3c(N[C@@H](c4ccc5c(n4)OCCO5)C(C)(C)C)ncnc3[nH]2)c1C#N | > 50 | > 50 | 42.6 | 20.5 | 8.79
C[C@H](C(=O)O)[C@@H](NC(=O)c1ncnc2[nH]ccc12)c1ccc(Br)cc1 | > 50 | > 50 | 5.14 | > 50 | > 50

Other lines, results leading:

IC50 (Cytochrome P450 1A2) [µM] | IC50 (Cytochrome P450 2C19) [µM] | IC50 (Cytochrome P450 2C9) [µM] | IC50 (Cytochrome P450 2D6) [µM] | IC50 (Cytochrome P450 3A4) [µM] | Structure (SMILES)
44.1 | 34.7 | 29 | 48.2 | 3.1 | CNC(=O)Cn1cc(-c2cc3c(N[C@@H](c4ccc5c(c4)S(=O)(=O)CCC5)C(C)C)ncnc3[nH]2)cn1
35.2 | 16.9 | 5.93 | 27.7 | 3.69 | CC(C)[C@H](Nc1ncnc2[nH]c(-c3cnn(C)c3C#N)cc12)c1ccc2c(n1)OCCO2
> 50 | > 50 | 31.2 | > 50 | 25.4 | COc1ccc([C@H](Cc2nnn[nH]2)NC(=O)c2ncnc3[nH]ccc23)cc1
49.3 | 22.6 | 5.25 | 9.03 | 1.81 | CNCc1cc(-c2cc3c(N[C@@H](c4ccc5c(c4)S(=O)(=O)CCC5)C(C)C)ncnc3[nH]2)co1
8.86 | 9.51 | 4.34 | 22.7 | 2.07 | CC(C)[C@@H](Nc1ncnc2[nH]c(-c3cnn(C)c3C#N)cc12)c1ccc2c(n1)OCCO2
